Columns and labels:
Format in all cases: cell-based, cotton (Coker 312)
[1] = system: transgenic cotton calli (Coker 312); test: Induction of embryogenesis in transgenic cotton callus on induction media with antioxidant (ascorbic acid)
Protocol: […] This culture was maintained at 28° C. under conditions of dark or limited lighting. The dark or limited lighting conditions were accomplished using a black bag, a covering of aluminum foil, or by incubating in a dark growth chamber. Alternatively, the transgenic calli may be incubated under green light. The incubation is continued for about eight to ten weeks.

embryogenic cotton calli = test: Embryogenic callus formation on induction media with ethylene inhibitors; conditions: 40 calli tested
Protocol: The transgenic calli were removed from the hypocotyls and transferred to a culture containing hormone-free media comprising the following components per liter: 4.4 g MS salts with B5 vitamins; 30 g glucose, pH 5.8; an antioxidant, such as ascorbic acid (10-100 mg); an ethylene inhibitor, such as aminoethoxyvinylglycine at approximately 5 μM; GELRITE or PHYTAGEL (2-3 g); and selective agents as described above. This culture was maintained at 28° C. under conditions of dark or limited lighting. The dark or limited lighting conditions were accomplished using a black bag, a covering of aluminum foil, or by incubating in a dark growth chamber. Alternatively, the transgenic calli may be incubated under green light. The incubation is continued for about eight to ten weeks.
In two separate experiments, the ethylene inhibitors AVG (aminoethoxy-vinylglycine), DNP (2,4-dinitrophenol), and salicylic acid were tested to determine their influence on the induction of embryogenic cotton calli.

cotton embryos = test: Embryo germination on germination media with varying carbohydrate concentration
Protocol: The preparation of Agrobacterium, seed sterilization, seed germination, inoculation, co-culture, and selection were performed as described in Example 1. Embryos were induced as outlined in Examples 2, 3, and 4. After eight weeks, the embryogenic tissue that formed was transferred to an embryo maturation media as described in Examples 5 and 6. Cultures were monitored for the presence of actively growing embryos.
About every four weeks, actively growing tissue and small embryos were removed and placed on fresh maturation media. The embryos were spaced on the culture plates with adequate room for growth. The tissue was returned to the warm room and incubated under the same growth conditions.
Embryos larger than about 5 mm were transferred to a germination media (Stewart and Hsu, Planta 137:113-117, […]) with various carbohydrate concentrations and 0.25 g/L GELRITE. The embryos are incubated at 28° C. in a lighted incubator with a 16/8 day/night cycle.
Various concentrations of glucose and sucrose in the germination media were tested. The germination media comprised sucrose or glucose at concentrations ranging from about 0%-2% (w/v).

[2] = pMON20956 vector, ascorbic acid 100 mg/L
[3] = 0.1% carbohydrate in germination media
[4] = 0.5% carbohydrate in germination media
[5] = 1% carbohydrate in germination media
[6] = 2% carbohydrate in germination media

O=C1O[C@H]([C@@H](O)CO)C(O)=C1O [Ascorbic Acid, ascorbic acid]
effect on frequency of embryogenesis ([1]; Coker 312, two independent experiments): increase the frequency of embryogenesis | % Embryogenic Calli Transfer 1 [1, 2]: 3% | % Embryogenic Calli Transfer 2 [1, 2]: 31% | Total Frequency of Embryogenesis [1, 2]: 34%

O=[N+]([O-])c1ccc(O)c([N+](=O)[O-])c1 [DNP, 2,4-dinitrophenol]
Embryogenic Calli Formed (embryogenic cotton calli; Expt 1 pMON10517, 1 μM): 17 | Frequency of Formation (embryogenic cotton calli; Expt 1 pMON10517, 1 μM): 43% | Embryogenic Calli Formed (embryogenic cotton calli; Expt 2 pMON10079, 1 μM): 16 | Frequency of Formation (embryogenic cotton calli; Expt 2 pMON10079, 1 μM): 40%

OC[C@H]1O[C@@](CO)(O[C@H]2O[C@H](CO)[C@@H](O)[C@H](O)[C@H]2O)[C@@H](O)[C@@H]1O [sucrose]
# Plantlets with Expanded Leaves (cotton embryos; [3]): 7 | Transformation Frequency (cotton embryos; [3]): 47% | # Plantlets with Expanded Leaves (cotton embryos; [4]): 10 | Transformation Frequency (cotton embryos; [4]): 43% | # Plantlets with Expanded Leaves (cotton embryos; [5]): 6 | Transformation Frequency (cotton embryos; [5]): 27% | # Plantlets with Expanded Leaves (cotton embryos; [6]): 5 | Transformation Frequency (cotton embryos; [6]): 28% | effect on frequency of embryo germination and plantlet formation (cotton embryos; concentrations ranging from about 0% to 0.5% (w/v) in germination media): significantly increased the frequency of embryo germination and plantlet formation

O=C(O)c1ccccc1O [salicylic acid]
Embryogenic Calli Formed (embryogenic cotton calli; Expt 1 pMON10517, 50 μM): 12 | Frequency of Formation (embryogenic cotton calli; Expt 1 pMON10517, 50 μM): 30% | Embryogenic Calli Formed (embryogenic cotton calli; Expt 2 pMON10079, 50 μM): 17 | Frequency of Formation (embryogenic cotton calli; Expt 2 pMON10079, 50 μM): 43%

Source: patent US20040087030A1, “Method for the regeneration of cotton” (priority 1998, published 2004)
